From patent publication US20240024273A1, “TOPICAL ADMINISTRATION OF 2-(DIETHYLAMINO)ETHYL 2-(4-ISOBUTYLPHENYL)PROPRIONATE FOR TREATMENT OF DISEASES” (TECHFIELDS PHARMA CO., LTD., priority 2020, published 2024)

Columns and labels:
[1] = tested on: osteoarthritis of the knee; assay: Second Phase 2 study: WOMAC overall score; assay type: in vivo, human
Source text: This is a Phase 2, multicenter, randomized, double blind (within dose), Ibuprofen-placebo controlled, parallel group, dose range finding study to evaluate the efficacy, safety, and PK of 2-(diethylamino)ethyl 2-(4-isobutylphenyl)propionate spray in adult subjects with clinically symptomatic OA of the knee. For subjects with bilateral knee pain, both knees will be treated, but the most symptomatic knee (ie, the most painful knee as measured by the Western Ontario and McMaster University Osteoarthritis Index [WOMAC® 3.1] pain subscale score at Screening) will be designated as the target knee for efficacy analyses. For subjects with unilateral knee pain, only the symptomatic (target) knee will be treated.
The VAS version of the WOMAC will be used for the Primary and Secondary Efficacy Endpoints. Efficacy endpoints will be assessed at Screening and Baseline (Day 1) and at the Week 2, Week 4, Week 8, and Week 12/EOS visits.
4.9.2. Secondary Efficacy Endpoints: • 1. Change from Baseline in the WOMAC (VAS) pain subscale score for the target knee at 2, 8, and 12 weeks of treatment; • 2. Change from Baseline in the WOMAC (VAS) stiffness subscale scores for the target knee and WOMAC (VAS) functional ability subscale scores at 2, 4, 8, and 12 weeks of treatment; • 3. Change from Baseline in the overall WOMAC (VAS) score at 2, 4, 8, and 12 weeks of treatment; • 4. Subject's global assessment of disease status of the target knee at 2, 4, 8, and 12 weeks of treatment; • 5. Subject's global assessment of response to therapy of the target knee at 2, 4, 8, and 12 weeks of treatment; • 6. Amount of rescue medication (acetaminophen) consumed per day for target knee pain.
The Secondary Efficacy Endpoints, change from Baseline in the WOMAC subscale scores for pain, stiffness, and functional ability, and overall WOMAC score at 2, 4, 8, and 12 weeks of treatment, will be analyzed using the same methods as for the Primary Efficacy Endpoint.

[2] = tested on: osteoarthritis of the knee; assay: Second Phase 2 study: Investigator's global assessment of disease status (IGADS); assay type: in vivo, human; details: Week 12; for IGADS: Good and Very good / IGADS: Poor and Very Poor / IGADS: fair: first 130 subjects
[3] = 17.5 mg/knee BID, Week 12, first 130 subjects
[4] = Week 12, 4.375 mg/knee BID (n = 23), first 130 subjects
[5] = Week 12, 8.75 mg/knee BID (n = 24), first 130 subjects
[6] = Week 12, 17.5 mg/knee BID (n = 19), first 130 subjects
[7] = all subjects, 4.375 mg/knee BID, n = 49, Week 12
[8] = all subjects, 8.75 mg/knee BID, n = 54, Week 12
[9] = all subjects, 17.5 mg/knee BID, n = 52, Week 12

## CCN(CC)CCOC(=O)C(C)c1ccc(CC(C)C)cc1 (stereo not shown) [2-(diethylamino)ethyl 2-(4-isobutylphenyl)propionate]
[1]; [3]
  WOMAC overall, difference from oral ibuprofen: −15.2 mm
  WOMAC overall, difference from placebo: −18.2 mm
[1]; 17.5 mg/knee BID, all subjects
  efficacy vs oral ibuprofen (3×400 mg/day): higher efficacy than oral ibuprofen (3×400 mg/day), but not significantly
  efficacy vs placebo: higher efficacy than placebo significantly
[1]; 4.375 mg/knee BID (n = 23), first 130 subjects
  WOMAC Overall Scores, Baseline (LS Mean): 59.3 mm
[1]; 8.75 mg/knee BID (n = 24), first 130 subjects
  WOMAC Overall Scores, Baseline (LS Mean): 60.7 mm
[1]; 17.5 mg/knee BID (n = 19), first 130 subjects
  WOMAC Overall Scores, Baseline (LS Mean): 63.4 mm
[1]; [4]
  WOMAC Overall Scores, % of improvement from Oral Ibuprofen: −10.1%
  WOMAC Overall Scores, % of improvement from baseline: −43.2%
  WOMAC Overall Scores, % of improvement from placebo: −13.0%
  WOMAC Overall Scores, Changes from Baseline (LS Mean): −25.6 mm
  WOMAC Overall Scores, Different from oral ibuprofen (LS Mean): −4.1 mm
  WOMAC Overall Scores, Different from placebo (LS Mean): −7.1 mm
  WOMAC Overall Scores, Week 12 (LS Mean): 33.8 mm
[1]; [5]
  WOMAC Overall Scores, % of improvement from Oral Ibuprofen: −11.8%
  WOMAC Overall Scores, % of improvement from baseline: −45.1%
  WOMAC Overall Scores, % of improvement from placebo: −14.9%
  WOMAC Overall Scores, Changes from Baseline (LS Mean): −27.4 mm
  WOMAC Overall Scores, Different from oral ibuprofen (LS Mean): −5.9 mm
  WOMAC Overall Scores, Different from placebo (LS Mean): −9.0 mm
  WOMAC Overall Scores, Week 12 (LS Mean): 33.3 mm
[1]; [6]
  WOMAC Overall Scores, % of improvement from Oral Ibuprofen: −24.6%
  WOMAC Overall Scores, % of improvement from baseline: −57.7%
  WOMAC Overall Scores, % of improvement from placebo: −27.5%
  WOMAC Overall Scores, Changes from Baseline (LS Mean): −36.6 mm
  WOMAC Overall Scores, Different from oral ibuprofen (LS Mean): −15.2 mm
  WOMAC Overall Scores, Different from placebo (LS Mean): −18.2 mm
  WOMAC Overall Scores, Week 12 (LS Mean): 26.8 mm
[1]; [7]
  WOMAC Overall Scores, % of improvement from Oral Ibuprofen: −1.5%
  WOMAC Overall Scores, % of improvement from baseline: −42.8%
  WOMAC Overall Scores, % of improvement from placebo: −6.6%
  WOMAC Overall Scores, Changes from Baseline (LS Mean): −25.4 mm
  WOMAC Overall Scores, Week 12 (LS Mean): 34.0 mm
[1]; [8]
  WOMAC Overall Scores, % of improvement from Oral Ibuprofen: −4.6%
  WOMAC Overall Scores, % of improvement from baseline: −45.9%
  WOMAC Overall Scores, % of improvement from placebo: −9.7%
  WOMAC Overall Scores, Changes from Baseline (LS Mean): −27.7 mm
  WOMAC Overall Scores, Different from oral ibuprofen (LS Mean): −2.8 mm
  WOMAC Overall Scores, Different from placebo (LS Mean): −6.4 mm
  WOMAC Overall Scores, Week 12 (LS Mean): 32.7 mm
[1]; [9]
  WOMAC Overall Scores, % of improvement from Oral Ibuprofen: −10.6%
  WOMAC Overall Scores, % of improvement from baseline: −51.9%
  WOMAC Overall Scores, % of improvement from placebo: −15.7%
  WOMAC Overall Scores, Changes from Baseline (LS Mean): −30.9 mm
  WOMAC Overall Scores, Different from oral ibuprofen (LS Mean): −6.0 mm
  WOMAC Overall Scores, Different from placebo (LS Mean): −9.6 mm
  WOMAC Overall Scores, Week 12 (LS Mean): 28.6 mm
[1]; high dose group, Week 12
  average scores in all six subscales: below 30 mm
[2]; 4.375 mg/knee BID (n = 23)
  IGADS: Good and Very good: 43.5%
  IGADS: Poor and Very Poor: 4.3%
  IGADS: fair: 53.2%
[2]; 8.75 mg/knee BID (n = 24)
  IGADS: Good and Very good: 41.7%
  IGADS: Poor and Very Poor: 4.2%
  IGADS: fair: 54.2%
[2]; 17.5 mg/knee BID (n = 19)
  IGADS: Good and Very good: 68.4%
  IGADS: Poor and Very Poor: 0%
  IGADS: fair: 31.6%
[2]; all subjects, 4.375 mg/knee BID, n = 49
  IGADS, Good and Very good: 40.8%
